Assay [1] concerns mice. The following applies: cited from earlier work.
In assay [2] the test system is Swiss Webster mice. Description: formalin induced pain model (Phase I, Phase II, edema). The class given is in vivo. The settings on record: oral administration. The source says:
This model is more specific than the acetic acid induced abdominal contortion model. It allows the assessment of two distinct types of pain: the pain of neurogenic origin (direct stimulation of the nociceptive neurons) and of inflammatory origin, representing the tonic response to pain, accompanied by an inflammatory response related to the release of chemical inflammation mediators. […] Immediately after the formalin injection, the animals were placed under a glass dome surrounded by mirrors in order to facilitate observation of the ensuing behaviour. Observation commenced immediately, initially timing the reaction to pain during the first 5 minutes after the formalin injection (corresponding to the period of neurogenic pain). Following an interval of 10 minutes, the licking times were recorded for a further 15 minutes (corresponding to the inflammatory pain). Total test time was of 30′.
At the end of this observation period, the animals were sacrificed by cervical displacement and the rear paws were removed at the tibiotarsal region and weighed on an analytical balance to quantify the edema induced by the formalin. The difference in weight (in mg) between the right paw (injected with formalin) and the left paw (injected with saline) was considered the rate of edema. […] Each analysis was performed using 8 to 10 male animals (Swiss Webster mice) weighing between 25 and 30 g.
The dose was calculated individually for each animal with the quantity in mg/kg (mg/1.000 g) of the substance to be administrated being in accordance to its weight. The injected volume of the solutions followed the rule of 0.1 ml/10 g of the animal's weight.
The animals were observed after the intraplantar injection of formalin for a period of 30 minutes. The reaction time (time in which the animal remains licking the injected paw) is then quantified in each of the phases: phase I (neurogenic pain—5 min observation) and phase II (inflammatory pain—15 min observation).
(§1) Parametric statistical tests were performed on the models described above. The results were submitted to ANOVA variance analysis followed by appropriate post hoc tests. […] The statistical analyses of the results were performed by means of variance analysis followed by the multiple comparison test using the Dunnett method, when appropriate. Values of p<0.05 were considered to indicate significance. The DI50 was estimated by means of individual experiments using GraphPad Instat statistical software.

Assay [3] has as its system Swiss Webster mice. The experiment in a line: abdominal contortion model induced by acetic acid. The class given is in vivo. The settings on record: oral administration; for DI50: dose reducing response by 50%, 95% limits; for IM (%): inhibition of number of contortions. The protocol:
The experimental acetic acid induced abdominal contortion model allows assessment of the antinociceptive activity of various substances that act both at central and peripheral levels. Nociceptive response is induces by the intraperitonal injection of acetic acid (0.6%) diluted in saline solution (0.9%). The abdominal contortions consist in the contraction of the abdominal muscles combined with the extension of one of the rear paws.
Each analysis was performed using 8 to 10 male animals (Swiss Webster mice) weighing between 25 and 30 g. The dose was calculated individually for each animal with the quantity in mg/kg (mg/1.000 g) of the substance to be administrated being in accordance to its weight. The injected volume of the solutions followed the rule of 0.1 ml/10 g of the animal's weight.
as §1

A value given as a limit tells only on which side of the number the result lay.

For the compound `COc1cc2oc(-c3ccc(O)cc3)cc(=O)c2c(O)c1[C@@H]1O[C@H](CO)[C@@H](O)[C@H](O)[C@H]1O[C@@H]1O[C@@H](C)[C@H](O)[C@@H](O)[C@H]1O` [2″-O-rhamnosylswertisin], the “analgesia, potency relative to aspirin” value in assay [1] (Meyre-Silva et al. 1999) is reported as “approximately 16 times”.

In the case of `COc1ccc2c(c1)c(CC(=O)O)c(C)n2C(=O)c1ccc(Cl)cc1` [Indomethacin], the “DI50” value in assay [2] (Edema) was more than 300 mg/kg; in assay [2] (Phase I (neurogenic)), more than 300 mg/kg; in assay [3], 189.95 mg/kg. For the same compound, the “IM (%)” value in assay [2] (Edema) is recorded as 36.5%; in assay [2] (Phase I (neurogenic)) it was 7.2%; in assay [2] (Phase II (inflammatory)), 53.1%; in assay [3] it was 72.0%. Further, the “DI50 (mg/kg)” value in assay [2] (Phase II (inflammatory)) is reported as 263.42 (239.83-289.35) mg/kg.

With `CC(=O)Oc1ccccc1C(=O)O` [AAS], the “DI50” value in assay [2] (Edema) is reported as more than 500 mg/kg; in assay [2] (Phase I (neurogenic)), more than 500 mg/kg; in assay [3], 364.1 mg/kg. The “IM (%)” value in assay [2] (Edema) came out at 31.7%; in assay [2] (Phase I (neurogenic)), 12.7%; in assay [2] (Phase II (inflammatory)), 65.7%; in assay [3] it was 64.5%. In assay [2] (Phase II (inflammatory)), the “DI50 (mg/kg)” value was 408.87 (391.47-427.03) mg/kg.

Turning to `COc1cc2oc(-c3ccc(O)cc3)cc(=O)c2c(O)c1[C@@H]1O[C@H](CO)[C@@H](O)[C@H](O)[C@H]1O` [swertisin], the “analgesic effect on acetic acid induced abdominal contortions” value in assay [1] (Meyre-Silva et al. 1998, 1999) was “did not have an analgesic effect”.

As for `O=C(O)Cc1ccccc1Nc1c(Cl)cccc1Cl` [Diclophenac], the “DI50” value is on record as more than 500 mg/kg in assay [2] (Edema) and 443.07 mg/kg in assay [3]. Besides, the “IM (%)” value is 33.7% in assay [2] (Edema), 68.8% in assay [2] (Phase I (neurogenic)), 82.5% in assay [2] (Phase II (inflammatory)) and 51.6% in assay [3]. In assay [2] (Phase I (neurogenic)), the “DI50 (mg/kg)” value is reported as 407.48 (357.56-464.37) mg/kg.

(Values after patent US8404283B2, “Standardized plant extract, process for obtaining the same and uses thereof” (Eurofarma Laboratorios Ltda, priority 2007, dated 2013).)
